US9120851B2, “Human antibodies to human angiopoietin-like protein 4” (Regeneron Pharmaceuticals, Inc., priority 2009, dated 2015)
Values belong to the molecule of their own block, whether it stands above or below them.

Key:
humanized ANGPTL4 mice = assay: Serum TG, H4H268P2 and fenofibrate alone or in combination; format: in vivo, mouse
Description: The effects of the anti-ANGPTL4 antibody H4H268P2 and TG-reducing drug fenofibrate, each alone or in combination, on serum TG levels were evaluated in humanized ANGPTL4 mice. The mice were pre-bled 7 days before the experiment after 4 hours of fasting and put into 4 groups of six mice each. Groups 2 and 4 were administered with H4H268P2 at 10 mg/kg by subcutaneous injection on day 0 and groups 1 (control group) and 2 were placed on regular chow diet. Groups 3 and 4 received chow diet supplemented with 0.05% (w/w) of fenofibrate (the dosage level was determined experimentally in a pilot study). Serum was collected from a terminal bleed on day 7 after H4H268P2 and/or fenofibrate administration (after 4 hours of fasting) and analyzed by ADVIA® 1800 Chemistry System (Siemens).

bovine LPL = molecular target: T1, bovine LPL (Bos taurus, UniProt P11151); assay: Dose-response of ANGPTL4 protein in the LPL assay; format: biochemical; settings: full dose-response of ANGPTL4 protein, determined for each experiment
T1 sequence (P11151 29-478): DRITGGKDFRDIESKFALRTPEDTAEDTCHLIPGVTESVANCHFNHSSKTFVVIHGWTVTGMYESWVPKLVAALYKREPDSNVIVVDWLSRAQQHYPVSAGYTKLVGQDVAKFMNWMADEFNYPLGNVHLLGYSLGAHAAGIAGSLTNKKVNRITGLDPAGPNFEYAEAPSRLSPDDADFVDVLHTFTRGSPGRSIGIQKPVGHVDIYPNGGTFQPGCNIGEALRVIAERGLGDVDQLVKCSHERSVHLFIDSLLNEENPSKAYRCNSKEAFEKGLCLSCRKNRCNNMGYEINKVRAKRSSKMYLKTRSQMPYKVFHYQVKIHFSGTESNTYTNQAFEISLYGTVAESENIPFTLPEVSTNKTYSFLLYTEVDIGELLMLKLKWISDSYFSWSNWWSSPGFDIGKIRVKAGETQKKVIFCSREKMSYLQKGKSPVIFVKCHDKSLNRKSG
Description: Briefly, 2 nM bovine LPL, 0.25 μM human ApoCII (a cofactor of LPL), 2 mg/mL BSA and 1.6 mM CaCl2, were premixed in a 96-well assay plate. Either hANGPTL4-His or hANGPTL4-mFc protein was added to the Apo/LPL mixture to a final concentration of 10 nM and 2 nM, respectively. The Apo/LPL/ANGPTL4 protein mixtures were then added together with serially diluted anti-hANGPTL4 antibodies with a starting concentration of 300 nM (for inhibition of hANGPTL4-His) or 100 nM (for inhibition of hANGPTL4-mFc) and incubated at room temperature for 30 minutes (final volume 50 μl). Following the incubation, 200 μl of reconstituted lipase substrate, 1-trinitrophenyl-amino-dodecanoyl-2-pyrendecanoyl-3-0-hexadecyl-sn-glycerol (LS-A, Progen), was added to the antibody mixture and incubated at 37° C. for two hours. Fluorescence was then measured at 342 nm/400 nm (excitation/emission) using a FlexStation® 3 Microplate Reader (Molecular Devices, CA). Fluorescence is directly proportional to LPL activity. Control I: a rabbit polyclonal antibody specific for hANGPTL4 (BioVendor). […] NT: not tested. […]

Molecule: CC(C)OC(=O)C(C)(C)Oc1ccc(C(=O)c2ccc(Cl)cc2)cc1 [fenofibrate]
TG levels reduced (mean) compared to control group on chow diet (humanized ANGPTL4 mice; day 7, H4H268P2 10 mg/kg s.c. day 0, fenofibrate 0.05% (w/w) in chow): ~25% | liver enlargement (liver weight/body weight) compared to control chow diet (humanized ANGPTL4 mice; mice that consumed fenofibrate for 7 days (groups 3 and 4)): 1.8 times

EC50 (bovine LPL): 3.89 nM
B1: His-MfANGPTL4 (26-148): cynomolgus monkey ANGPTL4 N-terminal region (residues 26-148) with an N-terminal hexa-histidine tag (SEQ ID NO:488) (protein)
chain: MHHHHHHGPVQSKSPRFASWDEMNVLAHGLLQLGQGLREHAERTRSQLNALERRLSACGSACQGTEGSTALPLAPESRVDPEVLHSLQTQLKAQNSRIQQLFHKVAQQQRHLEKQHLRIQRLQSQVGLLD
